The source of these data is PMC6584507 (Scientific Reports, 2019).

The target of one data set is T1, hTSLP/hTSLPR interaction (Homo sapiens, UniProt Q969D9).
T1 construct: human TSLP28–159 with thrombin cleavage site at C-terminus; thrombin cleavage site (C); 8xHis (from vector pAB-bee-8xHis) (C, cleaved yes); made in house; host or cells: Trichoplusia ni High-Five cells, baculovirus (secreted)
Nature of the data set: ELISA of hTSLP/hTSLPR interaction (FLAG-hTSLP, hTSLPR-His).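 On all read-outs here: His-tagged hTSLPR captured on Ni-NTA plates, compounds plus FLAG-hTSLP incubated 18 h at 4 °C, bound ligand detected with HRP anti-FLAG, OD 450 nm relative to control.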 Particulars: for inhibition at 300 µM / inhibition at 1000 µM: read-out: % inhibition (hTSLP-inhibitory activity by ELISA). In kind it is binding.

Data set [1] in a line: Kinetic aqueous solubility. In kind it is physicochemical. The settings on record: 0.1 M potassium phosphate buffer, kinetic from dmso stock, PBS / phosphate buffer pH 7.4. The method, then:
In brief, 10 mM stock solution of tested compounds was prepared in DMSO. 25 μL of the stock solution was added to a 1-mL uniprep vial containing 475 μL of 0.1 M potassium phosphate buffer (pH 7.4), and was shaken at 800 rpm for 90 min at room temperature. Following shaking, the mixture was filtered by slowly pressing the upper tube of the 1 mL Mini-Uniprep^TM filter (PTFE membrane, 0.45 μm). 250 μL of the filtrate solution was then transferred to a HPLC vial containing equal volume of acetonitrile.

Data set [2] relates to pSTAT5 in TSLP-stimulated HMC-1 cells. Nature of the data set: Western blot analysis of STAT5 phosphorylation. It is filed as cell-based, human. The settings on record: TSLP 20 ng/mL for 2 h. The procedure: (§1) HMC-1 cells were obtained from the Department of Food Technology and Inflammatory Disease Research Center (Hoseo University, Asan, Chungnam, Korea). Cells were cultured in Iscove’s modified Dulbecco’s medium (IMDM; Hyclone Laboratories Inc, USA) supplemented with 10% FBS and 1% Penicillin-streptomycin (PS; Gibco Industries Inc, USA) and incubated at 37 °C under humidified atmosphere of 95% air and 5% CO2. Recombinant hTSLP was purchased from R&D Systems (Minneapolis, USA).
[…] Activated cells were lysed and separated by 10% sodium dodecyl sulfate-polyacrylamide gel electrophoresis (SDS-PAGE). After electrophoresis, proteins were transferred to nitrocellulose membranes. The membranes were blocked, incubated with primary antibodies (1:700 dilution in PBS with 0.05% Tween-20), and developed using peroxidase-conjugated secondary antibodies (1:3000 dilution in PBS with 0.05% Tween-20). Proteins were visualized by enhanced chemiluminescence (Amersham Bioseciences, Piscataway, NJ, USA) according to the manufacturer’s instructions.
For orientation: Immunoblotting shows a protein as a band on a membrane.

Data set [3] concerns STAT5 phosphorylation in hTSLP-stimulated HMC-1 cells. Description: STAT5 assay (STAT5 phosphorylation, flow cytometry). In kind it is cell-based, human. The procedure: as §1
Intracellular phospho-STAT5 (pSTAT5) staining method was based on the protocol obtained from the laboratory of Susan Kaech, Department of Immunobiology, Yale University School of Medicine (New Haven, Connecticut, USA). Briefly, HMC-1 cells were seeded in 96-well U-bottom plate at a density of 1 × 10^7 cells/mL and stimulated with 100 ng/mL recombinant hTSLP alone or with 1 for 30 min. After stimulation, cells were fixed with BD Cytofix/Cytoperm (BD Biosciences, USA) solution for 10 min. Fixed cells were then permeabilized with ice-cold methanol for 30 min, and intracellular pSTAT5 was stained with Alexa Fluor 647 mouse anti-STAT5 (pY694; BD Biosciences, USA) (1:10 dilution in FACS buffer) for 30 min. Stained cells were further fixed with BD Cytofix/Cytoperm solution for 10 min and re-suspended in FACS buffer for flow cytometry analysis. Cells were analyzed by a BD LSR Fortessa Flow cytometry (BD Biosciences, USA). FACS data were analyzed using FlowJo software Ver 9. 7. 6 (Tree Star Inc., USA).

Structures are written as SMILES. Values after ≈ are worked out from the molar mass of the structure shown.

T1 sequence (Q969D9 28-159): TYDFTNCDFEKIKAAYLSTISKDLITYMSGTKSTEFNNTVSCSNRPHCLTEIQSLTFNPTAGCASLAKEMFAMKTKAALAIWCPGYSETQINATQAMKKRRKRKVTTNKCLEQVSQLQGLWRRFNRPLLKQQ

As usually defined, the inhibition is the change of the read-out against control, counted positive when it falls. For `O=C(O)[C@H]1O[C@@H](Oc2cc3oc(-c4ccccc4)cc(=O)c3c(O)c2O)[C@H](O)[C@@H](O)[C@@H]1O` [Compound 1a, baicalin], at hTSLP/hTSLPR interaction (0.3 mM), the inhibition at 300 µM worked out at 12.1 ± 1.8%. Further, the inhibition at 1000 µM on hTSLP/hTSLPR interaction (1 mM) was 19.9 ± 0.2%.

As to `COc1c(O)cc(O)c2c(=O)cc(-c3ccccc3)oc12` [Compound 1b, wogonin], the inhibition at 300 µM on hTSLP/hTSLPR interaction (0.3 mM) is less than 5%. Also, the inhibition at 1000 µM at hTSLP/hTSLPR interaction (1 mM) is less than 5%.

For the compound `COc1c(O)cc2oc(-c3ccccc3)cc(=O)c2c1O` [Compound 1c, oroxylin A], the “% inhibition (hTSLP-inhibitory activity by ELISA)” value at hTSLP/hTSLPR interaction (0.3 mM) is given as less than 5%. In addition, at hTSLP/hTSLPR interaction (1 mM), the inhibition at 1000 µM was 11.6 ± 6.3%.

Take `COc1cccc(O)c1-c1cc(=O)c2c(O)c(OC)c(OC)c(OC)c2o1` [Compound 1d, skullcapflavone II]: the inhibition at 300 µM on hTSLP/hTSLPR interaction (0.3 mM) is less than 5%. Further, the inhibition at 1000 µM at hTSLP/hTSLPR interaction (1 mM) was less than 5%.

Consider `COc1c(O)ccc(O)c1-c1cc(=O)c2c(O)cc(O)c(OC)c2o1` [Compound 1e, viscidulin III], for which the inhibition at 300 µM at hTSLP/hTSLPR interaction (0.3 mM) was 12.8 ± 0.6%. On hTSLP/hTSLPR interaction (1 mM), the inhibition at 1000 µM was 26.3%.

As for `O=C1CC(c2c(O)cccc2O)Oc2cc(O)cc(O)c21` (centres unmarked) [Compound 1f, 2′,5,6′,7-tetrahydroflavanone], the inhibition at 300 µM on hTSLP/hTSLPR interaction (0.3 mM) came out at 14 ± 3.8%. The inhibition at 1000 µM at hTSLP/hTSLPR interaction (1 mM) was found to be 8.4 ± 5.8%.

As to `COc1cc2oc(-c3ccccc3)cc(=O)c2c(OC)c1OC` [Compound 2], the inhibition at 300 µM at hTSLP/hTSLPR interaction (0.3 mM) is less than 5%. Moreover, the inhibition at 1000 µM on hTSLP/hTSLPR interaction (1 mM) came to 12 ± 2.8%.

For the compound `O=c1cc(-c2ccccc2)oc2cc(O)ccc12` [Compound 3a], the inhibition at 300 µM on hTSLP/hTSLPR interaction (0.3 mM) was 16.4 ± 2.7%. On hTSLP/hTSLPR interaction (1 mM), the inhibition at 1000 µM was 23.3 ± 6.8%.

In the case of `O=c1cc(-c2ccccc2)oc2ccc(O)cc12` [Compound 3b], the inhibition at 300 µM on hTSLP/hTSLPR interaction (0.3 mM) is 22.2 ± 2.5%. For the same compound, at hTSLP/hTSLPR interaction (1 mM), the inhibition at 1000 µM stood at 38.7 ± 5.3%.

Regarding `O=c1cc(-c2ccccc2)oc2cccc(O)c12` [Compound 3c], on hTSLP/hTSLPR interaction (0.3 mM), the inhibition at 300 µM came out at 24.1 ± 5.4%. The inhibition at 1000 µM on hTSLP/hTSLPR interaction (1 mM) was 16.8 ± 2%.

A word on the solubility (kinetic): it is solubility judged after dilution from a stock solution rather than from solid. In the case of `O=c1cc(-c2ccccc2)oc2cc(O)cc(O)c12` [Compound 6a, 5,7-Dihydroxy-2-phenyl-4H-chromen-4-one], the solubility (kinetic) at 90 min in data set [1] came out at 30 µM (≈ 7.63 µg/mL).

With `O=c1cc(-c2ccc(O)cc2)oc2cc(O)cc(O)c12` [Compound 6b, 5,7-Dihydroxy-2-(4-hydroxyphenyl)-4H-chromen-4-one], the kinetic solubility at 90 min in data set [1] came to 486 µM (≈ 131 µg/mL).

Take `O=C1CC(c2ccccc2)Oc2cc(O)cc(O)c21` (centres unmarked) [Compound 7a, 5,7-Dihydroxy-2-phenylchroman-4-one]: at hTSLP/hTSLPR interaction, the “hTSLP-inhibitory activity by ELISA, comparison in words” value was “weaker”. In data set [1], this compound displayed a solubility (kinetic) at 90 min of 111 µM (≈ 28.4 µg/mL).

`O=C1CC(c2ccc(O)cc2)Oc2cc(O)cc(O)c21` (centres unmarked) [Compound 7b, 5,7-Dihydroxy-2-(4-hydroxyphenyl)chroman-4-one]: the “hTSLP-inhibitory activity by ELISA, comparison in words” value at hTSLP/hTSLPR interaction is “weaker”. Also, the solubility (kinetic) at 90 min in data set [1] was 505 µM (≈ 137 µg/mL).

Take `O=c1cc(-c2cccc(-c3ccc(O)cc3)c2)oc2cc(O)cc(O)c12` [Compound 10a, 5,7-Dihydroxy-2-(4′-hydroxy-[1,1′-biphenyl]-3-yl)-4H-chromen-4-one]: the inhibition at 300 µM on hTSLP/hTSLPR interaction (0.3 mM) was more than 50%.

The term IC50 denotes the midpoint of a concentration-inhibition curve. Low readings indicate higher potency, high ones lower potency. Take `O=c1cc(-c2cccc(-c3ccccc3)c2)oc2cc(O)c(O)cc12` [Compound 10e, 2-([1,1′-Biphenyl]-3-yl)-6,7-dihydroxy-4H-chromen-4-one]: in data set [2] (HMC-1 cells pretreated), the “inhibition of STAT5 phosphorylation, Western blot (in words)” value (shortened to “inhibition of STAT5 phosphorylation”) is “stronger than compound 1”. The compound further showed an IC50 on hTSLP/hTSLPR interaction of 177 µM. In addition, the inhibition at 300 µM at hTSLP/hTSLPR interaction (0.3 mM) is more than 50%.

With `O=c1cc(-c2cccc(-c3ccc(O)cc3)c2)oc2cc(O)c(O)cc12` [Compound 10g, 6,7-Dihydroxy-2-(4′-hydroxy-[1,1′-biphenyl]-3-yl)-4H-chromen-4-one], the “inhibition of STAT5 phosphorylation” value in data set [2] (HMC-1 cells pretreated) is “stronger than compound 1”. This compound also came in with an IC50 on hTSLP/hTSLPR interaction of 210 µM. For the same compound, the inhibition at 300 µM at hTSLP/hTSLPR interaction (0.3 mM) was more than 50%.

For `O=c1cc(-c2cccc(-c3ccc([N+](=O)[O-])cc3)c2)oc2cc(O)c(O)cc12` [Compound 10h, 6,7-Dihydroxy-2-(4′-nitro-[1,1′-biphenyl]-3-yl)-4H-chromen-4-one], on hTSLP/hTSLPR interaction (0.3 mM), the inhibition at 300 µM is more than 50%.

Regarding `O=C1CC(c2cccc(-c3ccc(O)cc3)c2)Oc2cc(O)cc(O)c21` (centres unmarked) [Compound 11a, 5,7-Dihydroxy-2-(4′-hydroxy-[1,1′-biphenyl]-3-yl)chroman-4-one], the “inhibition of STAT5 phosphorylation” value in data set [2] (even at 0.01 μM, HMC-1 cells) is recorded as “strongly inhibited”. This compound displayed an IC50 on hTSLP/hTSLPR interaction of 370 µM. In data set [1], this compound had a kinetic solubility at 90 min of 66 µM (≈ 23 µg/mL).

Turning to `O=C(O)[C@H]1O[C@@H](Oc2cc3oc(-c4ccccc4)cc(=O)c3c(O)c2O)[C@H](O)[C@@H](O)[C@@H]1O` [KUP-040, baicalin], the STAT5 phosphorylation % in data set [3] (3 µM) amounted to 69.7%; in data set [3] (10 μM) it was 68.8%.

With `COc1c(O)cc2oc(-c3ccccc3)cc(=O)c2c1O` [KUP-119, oroxylin A], the “% inhibition (hTSLP-inhibitory activity by ELISA)” value at hTSLP/hTSLPR interaction (0.3 mM) is given as 1.7 ± 9.0%; on hTSLP/hTSLPR interaction (1 mM) it was 11.6 ± 6.3%.
